Where “and” joins values, the source holds several entries; their conditions need not be identical. Identical values can stand only once. Inconclusive results and toxic doses are left out. Rule as the data show it: active = T/C of 150% or more; inactive = T/C below 125%.
Tested on: L1210 leukemia ip in BDF1 mice, survival T/C
Experiment: NCI In Vivo Anticancer Drug Screen. Data for tumor model L1210 Leukemia (intraperitoneal) in B6D2F1 (BDF1) mice
Conditions: endpoint: mean survival time, higher = longer survival
Method in brief: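 Value reflects the ratio of survival in compound-treated mice to survival in vehicle-treated controls, with both groups carrying the same transplanted tumor.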

[1] = dose: 100.0 mg/kg/injection, schedule: Q04DX003 (ip), vehicle: saline
[2] = dose: 200.0 mg/kg/injection, schedule: Q04DX003 (ip), vehicle: saline
[3] = dose: 400.0 mg/kg/injection, schedule: Q04DX003 (ip), vehicle: saline
[4] = dose: 100.0 mg/kg/injection, schedule: Q04DX002 (ip), vehicle: Klucel (hydroxypropylcellulose) (HPC)
[5] = dose: 200.0 mg/kg/injection, schedule: Q04DX002 (ip), vehicle: Klucel (hydroxypropylcellulose) (HPC)
[6] = dose: 400.0 mg/kg/injection, schedule: Q04DX002 (ip), vehicle: Klucel (hydroxypropylcellulose) (HPC)
[7] = dose: 12.5 mg/kg/injection, schedule: Q01DX009 (ip), vehicle: saline
[8] = dose: 12.5 mg/kg/injection, schedule: Q04DX003 (ip), vehicle: saline
[9] = dose: 25.0 mg/kg/injection, schedule: Q01DX009 (ip), vehicle: saline
[10] = dose: 25.0 mg/kg/injection, schedule: Q04DX003 (ip), vehicle: saline
[11] = dose: 100.0 mg/kg/injection, schedule: Q01DX009 (ip), vehicle: Klucel (hydroxypropylcellulose) (HPC)
[12] = dose: 100.0 mg/kg/injection, schedule: Q04DX003 (ip), vehicle: Klucel (hydroxypropylcellulose) (HPC)
[13] = dose: 200.0 mg/kg/injection, schedule: Q01DX009 (ip), vehicle: Klucel (hydroxypropylcellulose) (HPC)
[14] = dose: 100.0 mg/kg/injection, schedule: Q01DX001 (ip), vehicle: saline
[15] = dose: 200.0 mg/kg/injection, schedule: Q01DX001 (ip), vehicle: saline
[16] = dose: 400.0 mg/kg/injection, schedule: Q01DX001 (ip), vehicle: saline

Measured: T/C

O=C1NC(CN2CCCC(O)C2)C(=O)NC1CN1CCCC(O)C1 (stereo unspecified) (tested in a mixture with another compound)
inactive: dose: 25.0 mg/kg/injection, schedule: Q01DX009 (ip), vehicle: water 104 % of control | dose: 50.0 mg/kg/injection, schedule: Q01DX009 (ip), vehicle: water 104 % of control | dose: 100.0 mg/kg/injection, schedule: Q01DX009 (ip), vehicle: water 112 % of control | dose: 200.0 mg/kg/injection, schedule: Q01DX009 (ip), vehicle: water 108 % of control

O=C(/C=C/c1ccccc1Cl)NCC(O)CO (stereo unspecified)
inactive: dose: 100.0 mg/kg/injection, schedule: Q04DX003 (ip), vehicle: other 108 % of control | dose: 200.0 mg/kg/injection, schedule: Q04DX003 (ip), vehicle: other 109 % of control | dose: 400.0 mg/kg/injection, schedule: Q04DX003 (ip), vehicle: other 109 % of control

CC(=O)CCCN(CCO)CCO
inactive: dose: 100.0 mg/kg/injection, schedule: Q01DX009 (ip), vehicle: saline 88 % of control | [1] 96 % of control | dose: 200.0 mg/kg/injection, schedule: Q01DX009 (ip), vehicle: saline 92 % of control | [2] 96 % of control | dose: 400.0 mg/kg/injection, schedule: Q01DX009 (ip), vehicle: saline 96 % of control | [3] 102 % of control

Clc1ccc(Oc2nc3c(Cl)cccc3s2)cc1Cl
inactive: [4] 101 % of control | [5] 101 % of control | [6] 97 % of control

CCc1ccc(N=Nc2c(F)c(F)c(N)c(F)c2F)cc1
inactive: dose: 100.0 mg/kg/injection, schedule: Q01DX001 (ip), vehicle: carboxymethylcellulose (CMC) 100 % of control | dose: 200.0 mg/kg/injection, schedule: Q01DX001 (ip), vehicle: carboxymethylcellulose (CMC) 95 % of control | dose: 400.0 mg/kg/injection, schedule: Q01DX001 (ip), vehicle: carboxymethylcellulose (CMC) 102 % of control

C/C=C/C[n+]1cccc2ccccc21
inactive: dose: 6.25 mg/kg/injection, schedule: Q01DX009 (ip), vehicle: saline 92 % of control | dose: 6.25 mg/kg/injection, schedule: Q04DX003 (ip), vehicle: saline 98 % of control | [7] 95 % of control | [8] 101 % of control | [9] 100 % of control | [10] 101 % of control

CCCCN(CCCC)CC(O)c1cc(-c2ccc(C(F)(F)F)cc2)nc2c(Cl)cc(Cl)cc12 (stereo unspecified)
inactive: dose: 100.0 mg/kg/injection, schedule: Q04DX002 (ip), vehicle: saline with Tween-80 100 % of control | dose: 200.0 mg/kg/injection, schedule: Q04DX002 (ip), vehicle: saline with Tween-80 92 % of control | dose: 400.0 mg/kg/injection, schedule: Q04DX002 (ip), vehicle: saline with Tween-80 95 % of control

O=C(COc1ccccc1)NCCO
inactive: [11] 110 % of control | [12] 100 % of control | [13] 103 % of control | dose: 200.0 mg/kg/injection, schedule: Q04DX003 (ip), vehicle: Klucel (hydroxypropylcellulose) (HPC) 97 % of control | dose: 400.0 mg/kg/injection, schedule: Q01DX009 (ip), vehicle: Klucel (hydroxypropylcellulose) (HPC) 111 % of control | dose: 400.0 mg/kg/injection, schedule: Q04DX003 (ip), vehicle: Klucel (hydroxypropylcellulose) (HPC) 102 % of control

O=C(CCCC(=O)N/N=C/c1ccccc1[N+](=O)[O-])N/N=C\c1ccccc1[N+](=O)[O-]
inactive: dose: 50.0 mg/kg/injection, schedule: Q01DX001 (ip), vehicle: saline 112 % of control | [14] 106 % of control | [15] 101 % of control | [16] 101 % of control

O=Cc1c(Cl)n(-c2ccccc2)c2c(C=O)cccc12
inactive: dose: 25.0 mg/kg/injection, schedule: Q04DX003 (ip), vehicle: Klucel (hydroxypropylcellulose) (HPC) 97 % of control | dose: 50.0 mg/kg/injection, schedule: Q04DX003 (ip), vehicle: Klucel (hydroxypropylcellulose) (HPC) 100 % of control | [12] 97 % of control

O=C1OCC/C1=C\NCCCN/C=C1\CCOC1=O
inactive: [4] 105 % of control | [5] 108 % of control | [6] 94 % of control

Cc1cc2ccccc2c[n+]1C
inactive: [7] 95 % of control | [8] 106 % of control | [9] 101 % of control | [10] 90 % of control | dose: 50.0 mg/kg/injection, schedule: Q01DX009 (ip), vehicle: saline 108 % of control | dose: 50.0 mg/kg/injection, schedule: Q04DX003 (ip), vehicle: saline 107 % of control

COc1cc(C=C(C#N)C#N)cc(OC)c1OC
inactive: dose: 25.0 mg/kg/injection, schedule: Q04DX002 (ip), vehicle: gum acacia 100 % of control | dose: 50.0 mg/kg/injection, schedule: Q04DX002 (ip), vehicle: gum acacia 110 % of control | dose: 100.0 mg/kg/injection, schedule: Q04DX002 (ip), vehicle: gum acacia 122 % of control and 91 % of control

O=C(O)CSc1n[nH]c(=O)[nH]c1=O
inactive: [14] 117 % of control | [15] 97 % of control | [16] 113 % of control

COC(=O)CCC(=O)CCC(C)C
inactive: dose: 100.0 mg/kg/injection, schedule: Q01DX009 (ip), vehicle: saline with Tween-80 110 % of control | dose: 100.0 mg/kg/injection, schedule: Q04DX003 (ip), vehicle: saline with Tween-80 103 % of control | dose: 200.0 mg/kg/injection, schedule: Q01DX009 (ip), vehicle: saline with Tween-80 92 % of control | dose: 400.0 mg/kg/injection, schedule: Q01DX009 (ip), vehicle: saline with Tween-80 101 % of control | dose: 400.0 mg/kg/injection, schedule: Q04DX003 (ip), vehicle: saline with Tween-80 93 % of control

CC1(C)OC2C(CNS(C)(=O)=O)OC(n3cnc4c(N)ncnc43)C2O1 (stereo unspecified)
inactive: [14] 102 % of control | [15] 98 % of control | [16] 101 % of control

COc1ccc(C=O)c(Cl)c1OC
inactive: [11] 94 % of control | [1] 92 % of control | [13] 94 % of control | [2] 108 % of control | [3] 98 % of control

O=C(CC(O)(C(F)(F)F)C(F)(F)F)CC(O)(C(F)(F)F)C(F)(F)F
inactive: dose: 0.25 mg/kg/injection, schedule: Q01DX009 (ip), vehicle: other 111 % of control | dose: 0.5 mg/kg/injection, schedule: Q01DX009 (ip), vehicle: other 107 % of control and 88 % of control | dose: 1.0 mg/kg/injection, schedule: Q01DX009 (ip), vehicle: other 97 % of control | dose: 1.0 mg/kg/injection, schedule: Q04DX003 (ip), vehicle: other 94 % of control | dose: 1.25 mg/kg/injection, schedule: Q01DX009 (ip), vehicle: saline 95 % of control | dose: 2.0 mg/kg/injection, schedule: Q01DX009 (ip), vehicle: other 108 % of control | dose: 2.0 mg/kg/injection, schedule: Q04DX003 (ip), vehicle: other 87 % of control | dose: 2.5 mg/kg/injection, schedule: Q01DX009 (ip), vehicle: saline with Tween-80 102 % of control | dose: 2.5 mg/kg/injection, schedule: Q01DX009 (ip), vehicle: saline 104 % of control | dose: 3.13 mg/kg/injection, schedule: Q04DX003 (ip), vehicle: other 104 % of control | dose: 5.0 mg/kg/injection, schedule: Q01DX009 (ip), vehicle: saline with Tween-80 97 % of control | dose: 5.0 mg/kg/injection, schedule: Q01DX009 (ip), vehicle: saline 95 % of control

— PubChem BioAssay AID248 (DTP/NCI, 2004)
